According to ChEMBL document CHEMBL1201862, “PubChem BioAssay data set” (2004):
Activity calls are given as the source filed them.

Assays:
[1] = test system: Streptococcus; assay: GAS UMAA2166 growth inhibition – luminescence, BacTiterGlo, counter-screen for streptokinase expression inhibitor project, dose response (AID 1915); assay type: functional, organism-based;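 also: potency for reduction of bacterial viability or growth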
[2] = biological target: 72 kDa type IV collagenase (Homo sapiens, UniProt P08253); assay: Dose Response validation of uHTS RPN11 inhibitor hits using a MMP-2 Fluorescence assay.; assay type: functional
[3] = biological target: T1, Streptokinase A (Streptococcus pyogenes serotype M1, UniProt P10520); assay: viability-normalized secreted streptokinase activity reduction – plasminogen activation absorbance, OD405, dose response (AID 1914); assay type: functional, Streptococcus pyogenes M1 GAS;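 also: secreted streptokinase activity via plasminogen activation per viability signal from cell pellet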
T1 sequence (P10520 whole entry): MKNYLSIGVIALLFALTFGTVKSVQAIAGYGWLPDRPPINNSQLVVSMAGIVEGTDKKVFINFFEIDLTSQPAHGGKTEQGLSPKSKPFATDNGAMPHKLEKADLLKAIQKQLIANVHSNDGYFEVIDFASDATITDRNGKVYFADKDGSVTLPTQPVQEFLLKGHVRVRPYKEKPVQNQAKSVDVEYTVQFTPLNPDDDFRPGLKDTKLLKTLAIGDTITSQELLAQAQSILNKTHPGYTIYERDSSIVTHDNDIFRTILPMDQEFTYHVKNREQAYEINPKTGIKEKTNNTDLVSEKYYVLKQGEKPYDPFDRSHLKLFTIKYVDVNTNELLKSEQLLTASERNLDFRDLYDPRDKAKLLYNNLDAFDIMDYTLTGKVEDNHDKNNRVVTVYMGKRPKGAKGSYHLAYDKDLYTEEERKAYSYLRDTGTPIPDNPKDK

[4] = biological target: 26S proteasome non-ATPase regulatory subunit 14 (Homo sapiens, UniProt O00487); assay: inhibition of proteasome subunit RPN11 – biochemical, fluorescence polarization, uHTS hits, confirmation (AID 602368); assay type: functional
[5] = test system: Streptococcus sp. 'group A'; assay: Streptococcus pyogenes SK(-)GAS viability under kanamycin – luminescence, BacTiterGlo, confirmation, counter-screen for streptokinase expression inhibitor project, dose response (AID 1900); assay type: functional, organism-based
[6] = biological target: Prothrombin (Bos taurus, UniProt P00735); assay: thrombin protease inhibitors – biochemical, fluorescence polarization, uHTS hits, dose response (AID 602369); assay type: functional
[7] = biological target: Melanocortin receptor 4 (Homo sapiens, UniProt P32245); assay: inhibitors of MC4R cAMP signaling – cell-based, TR-FRET, biased antagonists, dose response (AID 602298); assay type: functional;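 also: antagonist potency against agonist-stimulated cAMP production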
[8] = cAMP pathway inhibition in counterscreen cell line – TR-FRET cAMP detection, counter-screen for MC4R biased antagonist project, dose response (AID 602305); assay type: functional, cell-based;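 also: U2OS cells stimulated with forskolin near its EC80 as the cAMP inducer; potency is for inhibition of forskolin-stimulated cAMP signaling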
[9] = biological target: T2, Neuropeptides B/W receptor type 1 (Homo sapiens, UniProt P48145); assay: human NPBW1 receptor blockade, IC50 – cell-based, fluorescence, dose response, set 6, late-stage follow-up (AID 588583); assay type: functional
T2 sequence (P48145 whole entry): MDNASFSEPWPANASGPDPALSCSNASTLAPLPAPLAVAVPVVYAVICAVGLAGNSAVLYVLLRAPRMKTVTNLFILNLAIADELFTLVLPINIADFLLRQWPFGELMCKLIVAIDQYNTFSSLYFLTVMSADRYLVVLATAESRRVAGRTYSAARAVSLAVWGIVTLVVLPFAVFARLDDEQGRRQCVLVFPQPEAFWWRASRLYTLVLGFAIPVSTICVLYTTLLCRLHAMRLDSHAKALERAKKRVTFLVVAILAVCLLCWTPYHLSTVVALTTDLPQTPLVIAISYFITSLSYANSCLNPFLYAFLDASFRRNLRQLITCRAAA

[10] = biological target: Melanin-concentrating hormone receptor 1 (Homo sapiens, UniProt Q99705); assay: Late-stage fluorescence-based counterscreen for antagonists of the G-protein coupled receptor 7 (GPR7): cell-based dose response assay to identify antagonists of the melanin-concentrating hormone receptor 1 (MCHR1) Set 6.; assay type: functional
[11] = biological target: Aurora kinase B (Homo sapiens, UniProt Q96GD4); assay type: functional
Aurora kinase B, sequence (Q96GD4 whole entry): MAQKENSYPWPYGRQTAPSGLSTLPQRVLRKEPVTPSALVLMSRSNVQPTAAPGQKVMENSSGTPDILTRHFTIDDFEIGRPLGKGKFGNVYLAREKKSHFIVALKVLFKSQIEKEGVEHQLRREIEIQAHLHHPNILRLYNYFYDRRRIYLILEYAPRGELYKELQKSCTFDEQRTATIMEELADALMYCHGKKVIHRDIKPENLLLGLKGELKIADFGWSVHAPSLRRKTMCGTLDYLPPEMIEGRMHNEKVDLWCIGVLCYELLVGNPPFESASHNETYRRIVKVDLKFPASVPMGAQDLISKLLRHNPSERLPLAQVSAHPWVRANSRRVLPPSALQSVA

Melanin-concentrating hormone receptor 1, sequence (Q99705 whole entry): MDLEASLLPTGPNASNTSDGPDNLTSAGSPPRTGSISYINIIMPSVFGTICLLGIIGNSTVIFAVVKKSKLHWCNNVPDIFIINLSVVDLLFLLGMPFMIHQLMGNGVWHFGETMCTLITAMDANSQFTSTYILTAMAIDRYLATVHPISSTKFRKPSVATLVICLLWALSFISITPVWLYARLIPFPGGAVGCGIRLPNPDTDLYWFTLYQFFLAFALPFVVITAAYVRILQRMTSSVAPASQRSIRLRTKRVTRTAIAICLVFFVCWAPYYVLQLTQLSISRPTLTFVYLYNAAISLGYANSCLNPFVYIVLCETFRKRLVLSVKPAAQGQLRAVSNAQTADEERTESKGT
Melanocortin receptor 4, sequence (P32245 whole entry): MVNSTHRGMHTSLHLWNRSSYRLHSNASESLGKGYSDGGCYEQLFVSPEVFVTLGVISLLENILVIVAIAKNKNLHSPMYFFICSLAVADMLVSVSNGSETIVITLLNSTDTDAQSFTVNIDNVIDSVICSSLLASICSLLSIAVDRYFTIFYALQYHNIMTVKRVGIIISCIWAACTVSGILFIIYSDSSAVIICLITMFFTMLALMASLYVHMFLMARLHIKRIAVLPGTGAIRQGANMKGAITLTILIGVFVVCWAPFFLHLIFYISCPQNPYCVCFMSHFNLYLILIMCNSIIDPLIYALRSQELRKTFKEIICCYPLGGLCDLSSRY
26S proteasome non-ATPase regulatory subunit 14, sequence (O00487 whole entry): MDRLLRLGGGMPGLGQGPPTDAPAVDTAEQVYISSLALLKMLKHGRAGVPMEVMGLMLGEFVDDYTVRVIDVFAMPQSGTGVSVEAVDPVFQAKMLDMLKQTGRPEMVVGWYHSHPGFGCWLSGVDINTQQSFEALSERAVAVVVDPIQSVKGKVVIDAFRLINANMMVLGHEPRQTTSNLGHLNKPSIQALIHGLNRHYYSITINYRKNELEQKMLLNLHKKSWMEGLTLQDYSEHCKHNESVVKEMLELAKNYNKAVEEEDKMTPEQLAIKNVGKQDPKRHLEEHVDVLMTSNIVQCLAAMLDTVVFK
72 kDa type IV collagenase, sequence (P08253 whole entry): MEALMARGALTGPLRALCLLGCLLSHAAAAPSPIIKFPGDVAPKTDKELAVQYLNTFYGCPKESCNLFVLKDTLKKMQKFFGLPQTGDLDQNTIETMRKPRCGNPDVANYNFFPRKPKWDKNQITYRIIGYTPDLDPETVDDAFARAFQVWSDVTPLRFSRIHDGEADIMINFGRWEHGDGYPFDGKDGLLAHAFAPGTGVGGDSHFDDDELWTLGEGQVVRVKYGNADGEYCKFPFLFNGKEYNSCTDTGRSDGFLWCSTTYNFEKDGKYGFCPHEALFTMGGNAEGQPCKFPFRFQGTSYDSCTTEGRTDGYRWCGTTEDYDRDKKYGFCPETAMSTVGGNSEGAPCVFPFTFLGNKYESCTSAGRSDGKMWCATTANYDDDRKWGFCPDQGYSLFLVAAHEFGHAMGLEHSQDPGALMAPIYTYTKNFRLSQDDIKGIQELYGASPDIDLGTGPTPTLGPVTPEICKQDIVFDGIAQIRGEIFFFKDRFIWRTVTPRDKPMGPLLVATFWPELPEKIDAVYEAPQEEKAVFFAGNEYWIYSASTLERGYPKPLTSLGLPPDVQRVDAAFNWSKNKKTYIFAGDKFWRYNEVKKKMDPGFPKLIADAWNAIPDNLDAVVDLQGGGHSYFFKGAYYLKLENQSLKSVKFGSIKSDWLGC

For `O=C1NC(=S)N(C2CCCCC2)C(=O)/C1=C/NNC(=O)c1ccccc1`, the EC50 [1] was 8.22 µM (active), the IC50 [2] was > 100 µM (inactive) and the EC50 [3] was > 150 µM (not active). For the same compound, the IC50 [4] was 40.3 µM (active), the EC50 [5] was 0.519 µM (active) and the IC50 [6] was 36.1 µM (active).

For `CCOC(=O)c1cnc2ccc(OCC)cc2c1NCc1ccccc1`, the IC50 [7] was > 64.6 µM (inactive) and the IC50 [8] was > 64.6 µM (inactive).

For `N#CC(c1ccccn1)c1c(Br)cnn(Cc2cccc3ccccc23)c1=O` (stereo unspecified), the IC50 [9] was 0.8 µM (active) and the IC50 [10] was 0.8 µM (active).

In the case of `Cc1cccc(Nc2nccc(Nc3ccccc3C(=O)O)n2)c1`, the Ki [11] was 0.00126 µM (active).
